Measured values as given in patent publication US12528788B2, “Pesticidally active benzene- and azine-amide compounds” (SYNGENTA CROP PROTECTION AG, priority 2018, dated 2026).

Assays:
Format in all cases: in vivo
Tetranychus urticae = assay: Example B11: Tetranychus urticae (two-spotted spider mite) feeding/contact activity; details: foliar, 192 h, application rate of 200 ppm, 8 days after infestation, bean leaf discs, mixed population (mobile stages)
Experimental: Example B11: Tetranychus urticae (Two-Spotted Spider Mite): Feeding/Contact Activity
Bean leaf discs on agar in 24-well microtiter plates were sprayed with aqueous test solutions prepared from 10′000 ppm DMSO stock solutions. After drying the leaf discs were infested with a mite population of mixed ages. The samples were assessed for mortality on mixed population (mobile stages) 8 days after infestation.

Plutella xylostella [1] = assay: Example B14: Plutella xylostella (diamondback moth), 96-well artificial diet; details: 216 h, application rate of 500 ppm, 9 days after infestation
Experimental: Example B14: Plutella xylostella (Diamondback Moth)
96-well microtiter plates containing artificial diet were treated with aqueous test solutions, prepared from 10′000 ppm DMSO stock solutions, by a liquid handling robot. After drying, eggs (˜30 per well) were infested onto a netted lid which was suspended above the diet. The eggs hatch and L1 larvae move down to the diet. The samples were assessed for mortality 9 days after infestation.

Chilo suppressalis = assay: Example B4: Chilo suppressalis (striped rice stemborer), artificial diet, L2 larvae; details: 144 h, application rate of 200 ppm, 6 days after infestation, read-out: control in at least one of the three categories (mortality, anti-feedant effect or growth inhibition)
Experimental: Example B4: Chilo suppressalis (Striped Rice Stemborer)
24-well microtiter plates with artificial diet were treated with aqueous test solutions prepared from 10′000 ppm DMSO stock solutions by pipetting. After drying, the plates were infested with L2 larvae (6-8 per well). The samples were assessed for mortality, anti-feeding effect, and growth inhibition in comparison to untreated samples 6 days after infestation. Control of Chilo suppressalis by a test sample is given when at least one of the categories mortality, anti-feedant effect, and growth inhibition is higher than the untreated sample.

Spodoptera littoralis [2] = assay: Example B10: Spodoptera littoralis (Egyptian cotton leaf worm), uptake by lettuce roots from agar; details: 144 h, test rate of 12.5 ppm, 6 days after infestation, lettuce grown on treated agar, read-out: control in at least one of the three categories (mortality, anti-feeding, or growth inhibition)
From the text: Example B10: Spodoptera littoralis (Egyptian Cotton Leaf Worm)
Test compounds were applied by pipette from 10′000 ppm DMSO stock solutions into 24-well plates and mixed with agar. Lettuce seeds were placed onto the agar and the multi well plate was closed by another plate which contained also agar. After 7 days the compound was absorbed by the roots and the lettuce grew into the lid plate. The lettuce leaves were then cut off into the lid plate. Spodoptera eggs were pipetted through a plastic stencil onto a humid gel blotting paper and the lid plate was closed with it. The samples were assessed for mortality, anti-feedant effect and growth inhibition in comparison to untreated samples 6 days after infestation.

Myzus persicae [3] = assay: Example B8: Myzus persicae (green peach aphid) intrinsic activity; details: 120 h, test rate of 12 ppm, 5 days after infestation, sucrose solution
From the text: Example B8: Myzus persicae (Green Peach Aphid). Intrinsic Activity
Test compounds prepared from 10′000 ppm DMSO stock solutions were applied by pipette into 24-well microtiter plates and mixed with sucrose solution. The plates were closed with a stretched Parafilm. A plastic stencil with 24 holes was placed onto the plate and infested pea seedlings were placed directly on the Parafilm. The infested plate was closed with a gel blotting paper and another plastic stencil and then turned upside down. The samples were assessed for mortality 5 days after infestation.

Diabrotica balteata = assay: Example B1: Diabrotica balteata (corn root worm), maize sprouts sprayed, L2 larvae; details: 96 h, application rate of 200 ppm, 4 days after infestation, L2 larvae on maize sprouts, read-out: control in at least one of the two categories (mortality or growth inhibition)
Experimental: Example B1: Diabrotica balteata (Corn Root Worm)
Maize sprouts placed onto an agar layer in 24-well microtiter plates were treated with aqueous test solutions prepared from 10′000 ppm DMSO stock solutions by spraying. After drying, the plates were infested with L2 larvae (6 to 10 per well). The samples were assessed for mortality and growth inhibition in comparison to untreated samples 4 days after infestation.

Plutella xylostella [4] = assay: Example B5: Plutella xylostella (diamond back moth), artificial diet, 24-well, eggs; details: 192 h, application rate of 200 ppm, 8 days after infestation, read-out: control in at least one of the two categories (mortality or growth inhibition)
Experimental: Example B5: Plutella xylostella (Diamond Back Moth)
24-well microtiter plates with artificial diet were treated with aqueous test solutions prepared from 10′000 ppm DMSO stock solutions by pipetting. After drying, Plutella eggs were pipetted through a plastic stencil onto a gel blotting paper and the plate was closed with it. The samples were assessed for mortality and growth inhibition in comparison to untreated samples 8 days after infestation.

Myzus persicae [5] = assay: Example B6: Myzus persicae (green peach aphid) feeding/contact activity; details: foliar, 144 h, application rate of 200 ppm, 6 days after infestation, sunflower leaf discs
Experimental: Example B6: Myzus persicae (Green Peach Aphid) Feeding/Contact Activity
Sunflower leaf discs were placed onto agar in a 24-well microtiter plate and sprayed with aqueous test solutions prepared from 10′000 ppm DMSO stock solutions. After drying, the leaf discs were infested with an aphid population of mixed ages. The samples were assessed for mortality 6 days after infestation.

Myzus persicae [6] = assay: Example B13: Myzus persicae (green peach aphid), 96-well sucrose solution; details: 120 h, application rate of 50 ppm, 5 days after infestation
From the text: Example B13: Myzus persicae (Green Peach Aphid)
Test compounds prepared from 10′000 ppm DMSO stock solutions were applied by a liquid handling robot into 96-well microtiter plates and mixed with a sucrose solution. Parafilm was stretched over the 96-well microtiter plate and a plastic stencil with 96 holes was placed onto the plate. Aphids were sieved into the wells directly onto the Parafilm. The infested plates were closed with a gel blotting card and a second plastic stencil and then turned upside down. The samples were assessed for mortality 5 days after infestation.

Euschistus heros = assay: Example B2: Euschistus heros (neotropical brown stink bug), soybean leaves sprayed, N2 nymphs; details: 120 h, application rate of 200 ppm, 5 days after infestation, N2 nymphs on soybean leaves, read-out: control in at least one of the two categories (mortality or growth inhibition)
Experimental: Example B2: Euschistus heros (Neotropical Brown Stink Bug)
Soybean leaves on agar in 24-well microtiter plates were sprayed with aqueous test solutions prepared from 10′000 ppm DMSO stock solutions. After drying the leaves were infested with N2 nymphs. The samples were assessed for mortality and growth inhibition in comparison to untreated samples 5 days after infestation.

Spodoptera littoralis [7] = assay: Example B9: Spodoptera littoralis (Egyptian cotton leaf worm), cotton leaf discs sprayed, L1 larvae; details: foliar, 72 h, application rate of 200 ppm, 3 days after infestation, read-out: control in at least one of the three categories (mortality, anti-feedant effect or growth inhibition)
Myzus persicae [8] = assay: Example B7: Myzus persicae (green peach aphid) systemic activity; details: 144 h, test rate of 24 ppm, 6 days after placing seedlings into test solutions, pea seedlings
Experimental: Example B7: Myzus persicae (Green Peach Aphid) Systemic Activity
Roots of pea seedlings infested with an aphid population of mixed ages were placed directly into aqueous test solutions prepared from 10′000 DMSO stock solutions. The samples were assessed for mortality 6 days after placing seedlings into test solutions.

[9] = tested on: Frankliniella occidentalis; assay: Example B3: Frankliniella occidentalis (western flower thrips) feeding/contact activity; details: foliar, 168 h, application rate of 200 ppm, 7 days after infestation, sunflower leaf discs, mixed ages
Experimental: Example B3: Frankliniella occidentalis (Western Flower Thrips) Feeding/Contact Activity
Sunflower leaf discs were placed on agar in 24-well microtiter plates and sprayed with aqueous test solutions prepared from […] stock solutions. After drying the leaf discs were infested with a Frankliniella population of mixed ages. The samples were assessed for mortality 7 days after infestation.

Thrips tabaci = assay: Example B12: Thrips tabaci (onion thrips) feeding/contact activity; details: foliar, 144 h, application rate of 200 ppm, 6 days after infestation, sunflower leaf discs
Experimental: Example B12: Thrips tabaci (Onion Thrips) Feeding/Contact Activity
Sunflower leaf discs were placed on agar in 24-well microtiter plates and sprayed with aqueous test solutions prepared from 10′000 ppm DMSO stock solutions. After drying the leaf discs were infested with a Thrips population of mixed ages. The samples were assessed for mortality 6 days after infestation.

CC(NC(=O)c1cc(OC(F)F)cc(C(F)(F)F)c1)c1nccnc1-c1ncccn1 (stereo not shown) [Compound P23, 3-(difluoromethoxy)-N-[1-(3-pyrimidin-2-ylpyrazin-2-yl)ethyl]-5-(trifluoromethyl)benzamide]
≥ 80%: mortality at 200 ppm (Tetranychus urticae) | mortality at 500 ppm (Plutella xylostella [1]) | percent control (mortality, anti-feedant effect or growth inhibition) at 200 ppm (Chilo suppressalis) | percent control (mortality, anti-feeding or growth inhibition) at 12.5 ppm (Spodoptera littoralis [2]) | mortality at 12 ppm (Myzus persicae [3]) | percent control (mortality or growth inhibition) at 200 ppm (Diabrotica balteata) | percent control (mortality or growth inhibition) at 200 ppm (Plutella xylostella [4]) | mortality at 200 ppm (Myzus persicae [5]) | mortality at 50 ppm (Myzus persicae [6]) | percent control (mortality or growth inhibition) at 200 ppm (Euschistus heros) | percent control (mortality, anti-feedant effect or growth inhibition) at 200 ppm (Spodoptera littoralis [7]) | mortality at 24 ppm (Myzus persicae [8])

CC(c1nccnc1-c1ncccn1)N(CC1CC1)C(=O)c1cc(OC(F)F)cc(C(F)(F)F)c1 (stereo not shown) [Compound P24, N-(cyclopropylmethyl)-3-(difluoromethoxy)-N-[1-(3-pyrimidin-2-ylpyrazin-2-yl)ethyl]-5-(trifluoromethyl)benzamide]
≥ 80%: mortality at 200 ppm (Tetranychus urticae) | percent control (mortality, anti-feedant effect or growth inhibition) at 200 ppm (Chilo suppressalis) | mortality at 12 ppm (Myzus persicae [3]) | percent control (mortality or growth inhibition) at 200 ppm (Diabrotica balteata) | percent control (mortality or growth inhibition) at 200 ppm (Plutella xylostella [4]) | mortality at 200 ppm (Myzus persicae [5]) | mortality at 50 ppm (Myzus persicae [6]) | percent control (mortality, anti-feedant effect or growth inhibition) at 200 ppm (Spodoptera littoralis [7])

CC(NC(=O)c1cc(SC(F)(F)F)cc(C(F)(F)F)c1)c1nccnc1-c1ncccn1 (stereo not shown) [Compound P19, N-[1-(3-pyrimidin-2-ylpyrazin-2-yl)ethyl]-3-(trifluoromethyl)-5-(trifluoromethylsulfanyl)benzamide]
≥ 80%: mortality at 200 ppm [9] | mortality at 500 ppm (Plutella xylostella [1]) | percent control (mortality, anti-feedant effect or growth inhibition) at 200 ppm (Chilo suppressalis) | mortality at 12 ppm (Myzus persicae [3]) | percent control (mortality or growth inhibition) at 200 ppm (Diabrotica balteata) | percent control (mortality or growth inhibition) at 200 ppm (Plutella xylostella [4]) | mortality at 50 ppm (Myzus persicae [6]) | percent control (mortality, anti-feedant effect or growth inhibition) at 200 ppm (Spodoptera littoralis [7])

CC(c1nccnc1-c1ncccn1)N(CC1CC1)C(=O)c1cc(C(F)(F)F)cc(C(F)(F)F)c1 (stereo not shown) [Compound P5, N-(cyclopropylmethyl)-N-[1-(3-pyrimidin-2-ylpyrazin-2-yl)ethyl]-3,5-bis(trifluoromethyl)benzamide]
≥ 80%: mortality at 500 ppm (Plutella xylostella [1]) | mortality at 200 ppm (Thrips tabaci) | percent control (mortality, anti-feedant effect or growth inhibition) at 200 ppm (Chilo suppressalis) | mortality at 12 ppm (Myzus persicae [3]) | percent control (mortality or growth inhibition) at 200 ppm (Diabrotica balteata) | percent control (mortality or growth inhibition) at 200 ppm (Plutella xylostella [4]) | mortality at 50 ppm (Myzus persicae [6]) | percent control (mortality or growth inhibition) at 200 ppm (Euschistus heros) | percent control (mortality, anti-feedant effect or growth inhibition) at 200 ppm (Spodoptera littoralis [7])
